Consider ten molecules from ChEMBL document CHEMBL1143501, “Structure-activity relationship of the novel bivalent and C-terminal modified analogues of endomorphin-2” (Bioorg Med Chem Lett, 2005).

Starred links: 1 amine or outer side, 2 acyl side, 3 side chain; linkers in the order of their positions; H or OH if unused. Positions of bridges follow the written chain, without caps; N, C: chain ends. Residues, ends and D or L forms follow the SMILES beside them. Chains are numbered I, II in the order given. Ethylenediamine = C(CN[*:2])N[*:1]

Test [1] addresses Delta-type opioid receptor (Mus musculus, UniProt P32300). The test can be described thus: In vitro inhibitory concentration against Opioid receptor delta 1 was measured using mouse vas deferens assay.
Test [2] is described as follows: Mean value of binding constant for Opioid receptors assayed with [3H]DAMGO.
A short description of test [3]: Mean value of binding constant for Opioid receptors assayed with [3H]DPDPE.
In a further test the target is Mu-type opioid receptor (Cavia porcellus, UniProt P97266). The test is described as follows: In vitro inhibitory concentration against Opioid receptor mu 1 was measured using guinea pig ileum assay. It counts as tissue-based.
For test [4], the target named is Mu-type opioid receptor (Cavia porcellus) (UniProt P97266). The test can be described thus: In vitro potency of EM-2 was measured towards Opioid receptor mu 1 using guinea pig ileum assay. It counts as tissue-based.
Test [5] shares this target. The test can be described thus: Relative potency of EM-2 measured towards Opioid receptor mu 1 assayed with [3H]DAMGO.
For test [6], the target named is Delta-type opioid receptor (Mus musculus) (UniProt P32300). The test can be described thus: Relative potency of EM-2 measured towards Opioid receptor delta 1 assayed with [3H]DPDPE.
Test [7] has the same target. The test can be described thus: In vitro potency of EM-2 measured towards Opioid receptor delta 1 using mouse vas deferens assay. The test is classed as functional, tissue-based.
For test [8] the target is unchanged. The test is described as follows: Ratio of IC50s against Opioid receptor delta 1 was measured in mouse vas deferens to that of guinea pig ileum. It counts as tissue-based.
Test [9] is described as follows: Selectivity for Opioid receptor mu 1 to that of Opioid receptor delta 1.

Chain of Delta-type opioid receptor (P32300 whole entry): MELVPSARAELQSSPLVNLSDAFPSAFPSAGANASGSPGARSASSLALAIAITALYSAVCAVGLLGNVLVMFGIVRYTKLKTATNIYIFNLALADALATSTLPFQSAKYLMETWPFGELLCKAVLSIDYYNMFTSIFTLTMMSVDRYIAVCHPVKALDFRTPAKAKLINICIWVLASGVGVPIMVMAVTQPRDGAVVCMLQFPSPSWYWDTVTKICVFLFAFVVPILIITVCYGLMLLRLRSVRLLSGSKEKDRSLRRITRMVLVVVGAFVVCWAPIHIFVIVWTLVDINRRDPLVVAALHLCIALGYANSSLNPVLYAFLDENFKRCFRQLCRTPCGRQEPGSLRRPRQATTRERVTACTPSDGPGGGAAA
Chain of Delta-type opioid receptor (Mus musculus) (P32300 whole entry): as above
Chain of Mu-type opioid receptor (Cavia porcellus) (P97266 whole entry): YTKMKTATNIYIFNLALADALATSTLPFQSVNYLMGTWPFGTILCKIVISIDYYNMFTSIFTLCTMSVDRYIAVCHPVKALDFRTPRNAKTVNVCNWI
Chain of Mu-type opioid receptor (P97266 whole entry): as above

Turning to `N[C@@H](Cc1ccc(O)cc1)C(=O)N1CCC[C@H]1C(=O)N[C@@H](Cc1ccccc1)C(=O)N[C@@H](Cc1ccccc1)C(=O)NCCCCNC(=O)[C@H](Cc1ccccc1)NC(=O)[C@H](Cc1ccccc1)NC(=O)[C@@H]1CCCN1C(=O)[C@@H](N)Cc1ccc(O)cc1`, the 50% inhibitory concentration (IC50) in test [1] is above 10000 nM. The Ki in [2] stood at 168 nM; in [3] it was 7020 nM.
Consider `N[C@@H](Cc1ccc(O)cc1)C(=O)N1CCC[C@H]1C(=O)N[C@@H](Cc1ccccc1)C(=O)NNC(=O)[C@H](Cc1ccccc1)NC(=O)[C@@H]1CCCN1C(=O)[C@@H](N)Cc1ccc(O)cc1`, for which the IC50 against Mu-type opioid receptor was 1140 nM; in [1], 3200 nM. In addition, the values for the Ki in [2] and in [3] were 30.7 nM and 1900 nM, respectively.
For the molecule H-YPFYPF-NH2, the Relative potency came out at 0.013 in [4], 0.27 in [5], 4.41 in test [6] and 0.015 in test [7]. Besides, the Ratio in test [8] came to 2.82. The same molecule registered a Selectivity in test [9] of 61.8.
As to `NNC(=O)[C@H](Cc1ccccc1)NC(=O)[C@H](Cc1ccccc1)NC(=O)[C@@H]1CCCN1C(=O)[C@@H](N)Cc1ccc(O)cc1`, the figures for the IC50 (against Mu-type opioid receptor; in [1]) were 132 nM and 185 nM, respectively. Also, the Relative potency in test [4] is 0.11; in test [5], 0.88; in test [7], 0.26. The Ratio in test [8] came to 1.4. The Ki was 9.35 nM in [2] and above 10000 nM in test [3]. The Selectivity in [9] is above 1070.
`N[C@@H](Cc1ccc(O)cc1)C(=O)N1CCC[C@H]1C(=O)N[C@@H](Cc1ccccc1)C(=O)N[C@@H](Cc1ccccc1)C(=O)NCCNC(=O)[C@H](Cc1ccccc1)NC(=O)[C@H](Cc1ccccc1)NC(=O)[C@@H]1CCCN1C(=O)[C@@H](N)Cc1ccc(O)cc1`: the IC50 worked out at 3540 nM at Mu-type opioid receptor and 29 nM in test [1]. Further, the Ki was 86.3 nM in [2] and 613 nM in test [3].
For `N[C@@H](Cc1ccc(O)cc1)C(=O)N1CCC[C@H]1C(=O)N[C@@H](Cc1ccccc1)C(=O)N[C@@H](Cc1ccccc1)C(=O)NNC(=O)[C@H](Cc1ccccc1)NC(=O)[C@H](Cc1ccccc1)NC(=O)[C@@H]1CCCN1C(=O)[C@@H](N)Cc1ccc(O)cc1`, in that order: 518 nM, 721 nM, 96.4 nM and 539 nM.
For the molecule `NC(=O)[C@H](Cc1ccccc1)NC(=O)[C@@H]1CCCN1C(=O)[C@H](Cc1ccc(O)cc1)NCCC(=O)[C@H](Cc1ccccc1)NC(=O)[C@@H]1CCCN1C(=O)[C@@H](N)Cc1ccc(O)cc1`, the Relative potency was determined as 0.067 in test [4], 0.32 in test [5], 9.06 in [6] and 0.048 in test [7]. In addition, the Ratio in test [8] turned out to be 4.64. The Selectivity in test [9] came out at 35.4.
In test [5], `NC(=O)[C@H](Cc1ccccc1)NC(=O)[C@@H]1CCCN1C(=O)[C@@H](N)Cc1ccc(O)cc1` (H-Tyr-Pro-Phe-NH2) had a Relative potency of 0.059. In addition, the Ki in test [2] was 140 nM; in test [3] it was above 10000 nM. Moreover, the Selectivity in test [9] was above 71.4.
As for `COC(=O)[C@H](Cc1ccccc1)NC(=O)[C@H](Cc1ccccc1)NC(=O)[C@@H]1CCCN1C(=O)[C@@H](N)Cc1ccc(O)cc1`, the IC50 was 42.1 nM on Mu-type opioid receptor and 37.2 nM in [1]. Also, the Relative potency in test [4] was determined as 0.35; in test [5], 0.91; in test [7] it was 1.3. Moreover, the Ratio in [8] stood at 0.88. Further, the Ki in test [2] is 9.07 nM; in test [3], above 10000 nM. In [9], this molecule returned a Selectivity above 1110.
For the molecule `N[C@@H](Cc1ccc(O)cc1)C(=O)N1CCC[C@H]1C(=O)N[C@@H](Cc1ccccc1)C(=O)NCCNC(=O)[C@H](Cc1ccccc1)NC(=O)[C@@H]1CCCN1C(=O)[C@@H](N)Cc1ccc(O)cc1` (I: H-Tyr-Pro-Phe / II: H-Tyr-Pro-Phe; linker I:C-II:C via Ethylenediamine), the IC50 at Mu-type opioid receptor came out at 218 nM; in test [1], 1010 nM. Further, the Ki in test [2] is 26.1 nM; in test [3] it was 923 nM.
